Test results from patent publication US20230365589A1, “NOVEL AMINE DERIVATIVES” (Sumitomo Pharma Co., Ltd., priority 2020, published 2023).
Like-named read-outs stand apart in the source and are kept apart here.

How the values were obtained:
Assay type in all cases: biochemical
[1] = target: T1, DYRK2 (Homo sapiens, UniProt Q92630); test: Inhibition test on activity of DYRK family, mobility shift assay (MSA): DYRK2
T1 construct: purchased Carna Biosciences, Inc. 04-132
T1 sequence (Q92630 74-601 limits assumed): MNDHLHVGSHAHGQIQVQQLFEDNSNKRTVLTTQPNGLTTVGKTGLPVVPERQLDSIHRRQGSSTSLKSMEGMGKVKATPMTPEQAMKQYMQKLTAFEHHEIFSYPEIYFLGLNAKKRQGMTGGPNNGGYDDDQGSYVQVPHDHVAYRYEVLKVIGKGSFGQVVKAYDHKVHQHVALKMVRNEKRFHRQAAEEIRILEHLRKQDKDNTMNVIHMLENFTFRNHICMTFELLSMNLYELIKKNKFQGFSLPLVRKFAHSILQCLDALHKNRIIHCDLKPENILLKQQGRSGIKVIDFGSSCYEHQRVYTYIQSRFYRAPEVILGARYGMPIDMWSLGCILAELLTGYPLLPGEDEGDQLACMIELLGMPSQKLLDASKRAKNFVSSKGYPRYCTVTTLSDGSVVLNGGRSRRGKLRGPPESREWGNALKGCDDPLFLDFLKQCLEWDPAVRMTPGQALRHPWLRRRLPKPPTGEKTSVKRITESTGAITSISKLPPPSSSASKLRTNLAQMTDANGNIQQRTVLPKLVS
How it was run: (§1)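 Reactions ran 1 h at room temperature in HEPES buffer pH 7.5 with FITC-DYRKtide as substrate. ATP in the substrate mix was 100 µM for DYRK1A, 200 µM for DYRK1B, 40 µM for DYRK2 and 20 µM for DYRK3. Phosphorylated and unphosphorylated peptide were separated on a LabChip, and IC50 was regressed on log dose.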

[2] = target: T2, DYRK3 (Homo sapiens, UniProt O43781); test: Inhibition test on activity of DYRK family, mobility shift assay (MSA): DYRK3
T2 construct: purchased Carna Biosciences, Inc. 04-133
T2 sequence (O43781 1-568 isoform O43781-2): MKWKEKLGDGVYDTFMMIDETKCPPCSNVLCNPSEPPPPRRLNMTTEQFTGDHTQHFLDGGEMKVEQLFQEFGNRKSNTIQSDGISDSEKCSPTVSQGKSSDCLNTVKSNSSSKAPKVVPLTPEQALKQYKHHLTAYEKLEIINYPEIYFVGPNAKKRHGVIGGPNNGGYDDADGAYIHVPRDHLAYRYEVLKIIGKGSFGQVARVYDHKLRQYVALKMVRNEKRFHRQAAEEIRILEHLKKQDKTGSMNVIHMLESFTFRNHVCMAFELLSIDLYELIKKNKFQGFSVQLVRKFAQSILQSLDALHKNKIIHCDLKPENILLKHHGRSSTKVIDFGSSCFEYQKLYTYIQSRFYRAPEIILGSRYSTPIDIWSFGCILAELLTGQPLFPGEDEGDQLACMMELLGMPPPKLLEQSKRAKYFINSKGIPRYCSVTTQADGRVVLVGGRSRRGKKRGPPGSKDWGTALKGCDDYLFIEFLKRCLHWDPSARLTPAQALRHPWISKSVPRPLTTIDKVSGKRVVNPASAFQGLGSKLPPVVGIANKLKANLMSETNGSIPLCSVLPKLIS
How it was run: as §1

[3] = target: T3, DYRK1A (Homo sapiens, UniProt Q13627); test: Inhibition test on activity of DYRK family, mobility shift assay (MSA): DYRK1A
T3 construct: purchased Carna Biosciences, Inc. 04-130
How it was run: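 IC50 derived by regressing inhibition rate on log compound concentration, using P/(P+S) peak ratios from electrophoretic separation. DYRK1A enzyme solution 0.2 ng/μL, substrate mix with 4 μM FITC-DYRKtide and 100 μM ATP, pH 7.5 HEPES; reaction run 1 h at room temperature.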

[4] = target: T4, DYRK1B (Homo sapiens, UniProt Q9Y463); test: Inhibition test on activity of DYRK family, mobility shift assay (MSA): DYRK1B
T4 construct: purchased Carna Biosciences, Inc. 04-131
Protocol: [Inhibition Test on Activity of DYRK Family (DYRK1A, DYRK1B, DYRK2, and DYRK3)]
The kinase activity was measured by mobility shift assay (MSA) method using QuickScout Screening Assist™ MSA (commercially available kit manufactured by Carna Biosciences, Inc.). The substrate of the kinase reaction used was an FITC-labeled DYRKtide peptide included in the kit. An assay buffer [20 mM HEPES, 0.01% Triton X-100™, 2 mM dithiothreitol, pH 7.5]was used to create a substrate mixture solution with a substrate (4 μM), MgCl2(20 mM), and ATP (DYRK1A: 100 μM; DYRK1B: 200 μM; DYRK2: 40 μM; and DYRK3: 20 μM). In addition, kinases (DYRK1A: manufactured by Carna Biosciences, Inc., Cat. No. 04-130; DYRK1B: manufactured by Carna Biosciences, Inc., Cat. No. 04-131; DYRK2; manufactured by Carna Biosciences, Inc., Cat. No. 04-132; and DYRK3; manufactured by Carna Biosciences, Inc., Cat. No. 04-133) were diluted with the assay buffer to prepare enzyme solutions (DYRK1A: 0.2 ng/μL; DYRK1B: 0.08 ng/μL; DYRK2: 0.04 ng/μL; and DYRK3: 0.25 ng/μL). The 10 mM solution of the test compound in DMSO was further diluted with DMSO to 10 levels of the concentration (0.00003 mM, 0.0001 mM, 0.0003 mM, 0.001 mM, 0.003 mM, 0.01 mM, 0.03 mM, 0.1 mM, 0.3 mM, and 1 mM), each of which was subjected to 25-fold dilution with the assay buffer to obtain a drug solution (4% DMSO solution). 5 μL of the drug solution or a control solution (4% DMSO-assay buffer), 5 μL of the substrate mixture solution, and 10 μL of the enzyme solution were mixed in the wells of a polypropylene 384-well plate and allowed to react at room temperature for 1 hour, and then the reaction was quenched by adding 60 μL of the termination buffer included in the kit. Subsequently, the quantities of the substrates (S) and the phosphorylated substrate (P) in the reaction solution were measured using LabChip EZ Reader II system (manufactured by Caliper Life Sciences) according to the protocol of the assay kit.
The heights of the peaks of the “substrate” and the “phosphorylated substrate” were expressed as S and P, respectively, and a blank containing the assay buffer instead of the enzyme solution was also measured.
The inhibition rate (%) of the test compound was calculated according to the following equation:
Inhibition rate (%)=(1−(C−A)/(B−A))×100 • wherein, A, B, and C represent P/(P+S) of the blank well, P/(P+S) of the control solution well, and P/(P+S) of the compound-containing well, respectively.
The IC50 value was calculated via a regression analysis of the inhibition rate and the test compound concentration (logarithmic value).
The inhibiting activities of representative compounds of the present invention are shown against DYRK1A, DYRK1B, DYRK2, and DYRK3 in Tables.

[5] = read-out: Inhibitory activity DYRK 2
[6] = read-out: Inhibitory activity DYRK 3
[7] = read-out: Inhibitory activity DYRK 1A
[8] = read-out: Inhibitory activity DYRK 1B
[9] = MSA, FITC-labeled DYRKtide peptide, ATP 40 μM, read-out: Inhibitory activity DYRK 2 (IC50 class)
[10] = MSA, FITC-labeled DYRKtide peptide, ATP 20 μM, read-out: Inhibitory activity DYRK 3 (IC50 class)
[11] = MSA, FITC-labeled DYRKtide peptide, ATP 100 μM, read-out: Inhibitory activity DYRK 1A (IC50 class)
[12] = MSA, FITC-labeled DYRKtide peptide, ATP 200 μM, read-out: Inhibitory activity DYRK 1B (IC50 class)

T4 sequence (Q9Y463 whole entry): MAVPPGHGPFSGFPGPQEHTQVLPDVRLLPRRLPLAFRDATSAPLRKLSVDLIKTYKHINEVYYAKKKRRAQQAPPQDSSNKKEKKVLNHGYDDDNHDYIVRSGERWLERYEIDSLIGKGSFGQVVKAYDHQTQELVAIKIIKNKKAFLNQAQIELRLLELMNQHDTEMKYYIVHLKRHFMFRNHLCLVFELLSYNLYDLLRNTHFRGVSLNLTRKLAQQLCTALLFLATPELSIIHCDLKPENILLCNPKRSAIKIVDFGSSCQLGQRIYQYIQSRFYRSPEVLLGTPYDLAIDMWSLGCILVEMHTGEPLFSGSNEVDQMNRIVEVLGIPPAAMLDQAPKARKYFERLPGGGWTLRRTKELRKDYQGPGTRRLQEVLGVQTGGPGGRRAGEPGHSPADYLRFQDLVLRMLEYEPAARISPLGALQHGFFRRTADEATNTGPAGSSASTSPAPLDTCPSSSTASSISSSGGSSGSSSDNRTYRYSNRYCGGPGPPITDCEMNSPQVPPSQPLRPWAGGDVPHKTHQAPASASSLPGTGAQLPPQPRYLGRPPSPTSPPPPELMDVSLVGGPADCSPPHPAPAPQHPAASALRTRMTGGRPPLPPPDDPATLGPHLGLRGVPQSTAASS

Structure (SMILES) | IC50 [1, 5] [nM] | IC50 [2, 6] [nM] | IC50 [3, 7] [nM] | IC50 [4, 8] [nM] | IC50 [1, 9] [nM] | IC50 [2, 10] [nM] | IC50 [3, 11] [nM] | IC50 [4, 12] [nM]
N#CCN1CC[C@@H]2NC(=O)N(c3nc4c5c(ccc4s3)OCC5)[C@@H]2C1 (racemic) [Example 100, rac-[(3aR,7aS)-3-(7,8-dihydrofuro[3,2-e][1,3]benzothiazol-2-yl)-2-oxooctahydro-5H-imidazo[4,5-c]pyridin-5-yl]acetonitrile] | ≥ 1000 | ≥ 1000 | < 10 | 10 to 100 |  |  |  | 
O=C1N[C@@H]2[C@@H](CO)OC[C@@H]2N1c1nc2c3c(ccc2s1)OCC3 [Example 158] |  |  |  |  | ≥ 1000 | ≥ 1000 | 100 to 1000 | 100 to 1000
CN1CC[C@@H]2NC(=O)N(c3nc4c5c(ccc4s3)OCC5)[C@@H]2C1 (single isomer, unassigned) [Example 28] |  |  |  |  | ≥ 1000 | ≥ 1000 | 10 to 100 | 10 to 100
O=C1NC2CNCC2N1c1nc2c3c(ccc2s1)OCC3 (stereo not shown) [Example 3] |  |  |  |  | ≥ 1000 | 100 to 1000 | 100 to 1000 | 100 to 1000
CN1CC[C@@H]2NC(=O)N(c3nc4c5c(ccc4s3)OCC5)[C@@H]2C1 (relative stereo) [Example 7, cis-3-(7,8-Dihydrofuro[3,2-e][1,3]benzothiazol-2-yl)-5-methyloctahydro-2H-imidazo[4,5-c]pyridin-2-one] |  |  |  |  | ≥ 1000 | ≥ 1000 | 10 to 100 | 10 to 100
CN1CC[C@@H]2[C@H](C1)NC(=O)N2c1nc2c3c(ccc2s1)OCC3 (relative stereo) [Example 9, cis-1-(7,8-dihydrofuro[3,2-e][1,3]benzothiazol-2-yl)-5-methyloctahydro-2H-imidazo[4,5-c]pyridin-2-one] |  |  |  |  | 100 to 1000 | 100 to 1000 | 10 to 100 | 10 to 100
N#CC[C@H]1OC[C@@H]2NC(=O)N(c3nc4c5c(ccc4s3)OCC5)[C@@H]21 [Example 162, [(3aS,4R,6aR)-3-(7,8-Dihydrofuro[3,2-e][1,3]benzothiazol-2-yl)-2-oxohexahydro-1H-furo[3,4-d]imidazol-4-yl]acetonitrile] |  |  |  |  | 100 to 1000 | 100 to 1000 |  | 10 to 100
O=C1N[C@H]2CCCN(C3CC3)C[C@H]2N1c1nc2c3c(ccc2s1)OCC3 (racemic) [Example 104, rac-(3aR,8aS)-5-cyclopropyl-3-(7,8-dihydrofuro[3,2-e][1,3]benzothiazol-2-yl)octahydroimidazo[4,5-c]azepin-2(1H)-one] | 100 to 1000 | 100 to 1000 | < 10 |  |  |  |  | 

Continued, values first:

IC50 [1, 5] [nM] | IC50 [2, 6] [nM] | IC50 [3, 7] [nM] | IC50 [4, 8] [nM] | IC50 [1, 9] [nM] | IC50 [2, 10] [nM] | IC50 [3, 11] [nM] | IC50 [4, 12] [nM] | Structure (SMILES)
 |  |  |  | 100 to 1000 | 10 to 100 | < 10 | < 10 | C[C@H]1C[C@@H]2[C@H](CO1)NC(=O)N2c1nc2c3c(ccc2s1)OCO3 [Example 139, (3aR,6S,7aR)-1-(2H-[1,3]dioxolo[4,5-e][1,3]benzothiazol-7-yl]-6-methylhexahydropyrano[3,4-d]imidazol-2(3H)-one]
 |  |  |  | 100 to 1000 | 100 to 1000 | < 10 | < 10 | CC[C@H]1C[C@@H]2[C@H](CO1)NC(=O)N2c1nc2c3c(ccc2s1)OCO3 [Example 138, (3aR,6S,7aR)-1-(2H-[1,3]dioxolo[4,5-e][1,3]benzothiazol-7-yl)-6-ethylhexahydropyrano[3,4-d]imidazol-2(3H)-one]
 |  |  |  | 100 to 1000 | 100 to 1000 | < 10 | < 10 | CC[C@H]1C[C@@H]2[C@H](CO1)NC(=O)N2c1nc2c3c(ccc2s1)OCCO3 [Example 43, (3aR,6S,7aR)-1-(7,8-dihydro[1,4]dioxino[2,3-e][1,3]benzothiazol-2-yl)-6-ethylhexahydropyrano[3,4-d]imidazol-2(3H)-one]
 |  |  |  | ≥ 1000 | ≥ 1000 | < 10 | < 10 | O=C1N[C@H]2CCN(C3CC3)C[C@H]2N1c1nc2c3c(ccc2s1)OCO3 (single isomer, unassigned) [Example 36]
10 to 100 | 10 to 100 | 10 to 100 | 10 to 100 |  |  |  |  | O=C1N[C@H]2COC[C@H]2N1c1nc2c3c(ccc2s1)OCC3 [Example 119]
 |  |  |  | 10 to 100 | 10 to 100 | < 10 | < 10 | O=C1N[C@H]2CO[C@@H](CF)C[C@H]2N1c1nc2c3c(ccc2s1)OCO3 [Example 140, (3aR,6R,7aR)-1-(2H-[1,3]dioxolo[4,5-e][1,3]benzothiazol-7-yl]-6-(fluoromethyl)hexahydropyrano[3,4-d]imidazol-2(3H)-one]
 |  |  |  | ≥ 1000 | ≥ 1000 | 100 to 1000 | 100 to 1000 | C[C@@H]1C[C@@H]2[C@H](CO1)NC(=O)N2c1nc2c3c(ccc2s1)OCC3 [Example 160]
 |  |  |  | 100 to 1000 | 100 to 1000 |  | 10 to 100 | O=C1N[C@H]2CO[C@H](CO)[C@H]2N1c1nc2c3c(ccc2s1)OCC3 [Example 157, (3aR,6S,6aS)-1-(7,8-dihydrofuro[3,2-e][1,3]benzothiazol-2-yl)-6-(hydroxymethyl)tetrahydro-1H-furo[3,4-d]imidazol-2(3H)-one]
